Measured values as given in patent US20230065814A1, “CONJUGATES OF-ELECTRON-PAIR-DONATING HETEROAROMATIC NITROGEN-COMPRISING COMPOUNDS” (Ascendis Pharma A/S, priority 2019, published 2023).

Columns and labels:
Format in all cases: physicochemical
[1] = In vitro release kinetics (Example 59): cleavage rate of the reversible bond at 37° C. in aqueous buffer, conditions A-F; conditions: aqueous sodium phosphate buffer, pH 7.4
Procedure: The cleavage rate of the reversible bond from conjugates 9a-d, 13a-e and 17b-q was monitored at 37° C. in aqueous buffer (condition A: pH 7.4 60 mM sodium phosphate, 1% acetonitrile, B: pH 7.4 48 mM sodium phosphate, 20% acetonitrile, 0.1% Pluronic F68, C: pH 7.4 48 mM sodium phosphate with 16 mM L-Methionine 2.4 mM EDTA, 0.1% pluronic and 20% acetonitrile, D: pH 7.0 48 mM sodium phosphate with 16 mM L-Methionine 2.4 mM EDTA, 0.1% pluronic and 20% acetonitrile, E: pH 7.4 60 mM sodium phosphate, F: pH 7.4 48 mM sodium phosphate, 20% acetonitrile). For soluble examples disappearance of the conjugate was determined by LCMS (UV detection) and fitted with curve fitting software to obtain the half-life of the release. For insoluble examples (hydrogels) the increase in released axitinib in the supernatant was determined by LCMS (UV detection) and used as input for the curve fitting software to obtain the half-life of the release. Release rates at pH 7.4 for conjugates only incubated at pH 7.0 are estimated to increase by a factor of 2 to 3.
The compounds marked with “*” are not in accordance with the present invention as they were for efficiency reasons not linked to a moiety Z. Nevertheless, they show the release half-lives of such moieties -L^1-.

[2] = In vitro release kinetics (Example 34): cleavage rate of the reversible bond at pH 7.4 and 37° C. in aqueous buffer; conditions: aqueous sodium phosphate buffer, read-out: t1/2 (pH 7.4) (converted)
Procedure: For soluble examples disappearance of the conjugate was determined by LCMS (UV detection) and fitted with curve fitting software to obtain the preliminary half-life of the release. For insoluble examples (hydrogels) the increase in released heteroaromatic moiety containing molecule in the supernatant was determined by LCMS (UV detection) and used as input for the curve fitting software to obtain the preliminary half-life of the release.
Compounds marked with “**” were synthesized for comparison.

[3] = In vitro release kinetics (Example 69): cleavage rate of the reversible bond at pH 7.4 and 37° C. in aqueous buffer; conditions: aqueous sodium phosphate buffer
Procedure: The cleavage rate of the reversible bond from conjugates 18, 20, 23 was monitored at pH 7.4 and 37° C. in aqueous buffer (pH 7.4 48 mM sodium phosphate, 20% acetonitrile). Disappearance of the conjugate was determined by LCMS (UV detection) and fitted with curve fitting software to obtain the half-life of the release.

| SMILES | half-life [2] [days] | other results |
| --- | --- | --- |
| C[C@@H](CC(=O)O)NC(=O)C[C@H](C)NC(=O)CN(C)C(=O)n1nc(C(=O)O)c2ccccc21 [Compound 13b] |  | half-life [1]: 86.4 h |
| CCCNC(=O)CN(CC)C(=O)n1nc(C(=O)O)c2ccccc21 [Compound 7h] | 8.1 |  |
| CNCCNC(=O)[C@H](CC(=O)n1ncc2ccccc21)N(C)C(=O)CCCCCS(=O)(=O)O [1 h] | < 0.000694 |  |
| CCCCOC(=O)n1nc(C(=O)O)c2ccccc21 [Compound 6a] | 21 |  |
| C[C@@H](CC(=O)N(C)CCC(=O)O)NC(=O)CN(C)C(=O)n1nc(C(=O)O)c2ccccc21 [Compound 13a] |  | half-life [1]: 101 h |
| CC(=O)N[C@H](C(=O)O)[C@H](C)OC(=O)n1nc(C(=O)O)c2ccccc21 [Compound 6e] | 1 |  |
| O=C(O)CCCCCNC(=O)CONC(=O)CNC(=O)n1nc(C(=O)O)c2ccccc21 [Compound 13e] |  | half-life [1]: 108 h |
| CCN(CC(=O)NCCOCCOCC(=O)O)C(=O)n1nc(C(=O)O)c2ccccc21 [Compound 13d] |  | half-life [1]: 76.8 h |
| CC(CCC(=O)NCCC(=O)O)OC(=O)n1nc(C(=O)O)c2ccccc21 (stereo not shown) [Compound 6d] | 36 |  |
| COC(=O)c1ccc2ncn(C(=O)N(C)CC(=O)NC(C)CCCCC(=O)O)c2c1 (stereo not shown) [Compound 20] |  | half-life [3]: 43.2 h |
| C[C@H](NC(=O)CN(C)C(=O)n1nc(C(=O)O)c2ccccc21)C(=O)NCCCCCC(=O)O [Compound 8b] | 0.342 |  |
| CCC(C)NC(=O)CN(C)C(=O)n1nc(C(=O)O)c2ccccc21 (stereo not shown) [Compound 7b] | 17 |  |
| CNC(=O)c1ccccc1Sc1ccc2c(/C=C/c3ccccn3)nn(C(=O)N(C)CC(=O)N[C@H](C(=O)O)C(C)C)c2c1 [Compound 9c] |  | half-life [1]: 1130 h |
| CCN(CC(=O)NC(C)CCCCC(=O)O)C(=O)n1nc(C(=O)O)c2ccccc21 (stereo not shown) [Compound 7e] | 52 |  |
| CCN(CC(=O)NCCCCCC(=O)O)C(=O)n1nc(/C=C/c2ccccn2)c2ccc(Sc3ccccc3C(=O)NC)cc21 [Compound 9d] |  | half-life [1]: 110 h |
| CCCNC(=O)CCN(C)C(=O)n1nc(C(=O)O)c2ccccc21 [Compound 7d] | > 180 |  |
| CC(C)[C@H](NC(=O)CN(C)C(=O)n1nc(C(=O)O)c2ccccc21)C(=O)O [Compound 7c] | > 180 |  |

| SMILES | half-life [2] [days] | other results |
| --- | --- | --- |
| CC(C)(C)OC(=O)n1nc(C(=O)O)c2ccccc21 [Compound 6c] | 0.0833 |  |
| CCN(CC(=O)NCCCCCC(=O)O)C(=O)n1nc(C(=O)O)c2ccccc21 [Compound 7f] | 9.6 |  |
| CCCC(C)OC(=O)n1nc(C(=O)O)c2ccccc21 (stereo not shown) [Compound 6b] | 99 |  |
| CN(C)CCCN(C)C(=O)n1nc(C(=O)O)c2ccccc21 [Compound 7k] | 164 |  |
| CCN(CC(=O)NCCC(=O)O)C(=O)n1nc(/C=C/c2ccccn2)c2ccc(Sc3ccccc3C(=O)NC)cc21 [Compound 9a] |  | half-life [1]: 96 h |
| CN(C)CCN(C)C(=O)n1ccc2cc(C(=O)O)ccc21 [Compound 23] |  | half-life [3]: 744 h |
| CNC(=O)c1ccccc1Sc1ccc2c(/C=C/c3ccccn3)nn(C(=O)N(C)CC(=O)N[C@@H](C)CC(=O)O)c2c1 [Compound 9b] |  | half-life [1]: 276 h |
| O=C(O)CCCCCNC(=O)[C@@H]1CCCN1C(=O)n1nc(C(=O)O)c2ccccc21 [Compound 8d] | 12 |  |
| C[C@@H](C(=O)NCCCCCC(=O)O)N(C)C(=O)n1nc(C(=O)O)c2ccccc21 [Compound 8c] | 13 |  |
| CCCNC(=O)CN(C)C(=O)n1nc(C(=O)O)c2ccccc21 [Compound 7a] | 3.5 |  |
| CN(C)CCN(C)C(=O)n1nc(C(=O)O)c2ccccc21 [Compound 7j] | 0.121 |  |
| CCCNC(=O)n1nc(C(=O)O)c2ccccc21 [Compound 7i] | > 180 |  |
| C[C@@H](CCC(=O)NCCCCCC(=O)O)NC(=O)CN(C)C(=O)n1nc(C(=O)O)c2ccccc21 [Compound 13c] |  | half-life [1]: 166 h |
| CCN(CC(=O)NCCC(=O)O)C(=O)n1nc(C(=O)O)c2ccccc21 [Compound 7g] | 7.7 |  |
| CC(CCCCC(=O)O)NC(=O)CN(C)C(=O)n1ccnc1 (stereo not shown) [Compound 18] |  | half-life [3]: 40.8 h |
| O=C(O)CCNC(=O)[C@H]1CC[C@H](OC(=O)n2nc(C(=O)O)c3ccccc32)CC1 [Compound 6f] | 39 |  |
| C[C@@H](CC(=O)NCCCCCC(=O)O)NC(=O)CN(C)C(=O)n1nc(C(=O)O)c2ccccc21 [Compound 8a] | 2.4 |  |
